According to patent US20100190832A1, “Mechanism-based inhibitors of transthyretin amyloidosis: studies with biphenyl ethers and structural templates” (NATIONAL INSTITUTE OF IMMUNOLOGY., priority 2008, published 2010):
Read-outs that look alike come from different tables or passages of the source.

Legend:
WT-TTR = molecular target: T1, WT-TTR (Homo sapiens, UniProt P02766); assay: Stagnant acid-mediated TTR aggregation (fibril formation) assay, turbidity at 340 nm; format: biochemical; conditions: for remaining activity at 7.2 µM / remaining activity at 21.6 µM / remaining activity at 50 µM / remaining activity at 100 µM: 72 h; for remaining activity at 50 µM: read-out: % FF at 50 μM
T1 construct: made in house
Procedure: Stagnant Acid-Mediated TTR Aggregation Assay.
After 1 h, the samples were diluted with 0.5 ml of 200 mM sodium acetate buffer containing 100 mM KCl and 1 mM EDTA. Samples after mild vortexing were incubated at 37° C. for the desired amount of time without stirring to evaluate the efficacy of the inhibitors. The extent of aggregation was probed by turbidity measurements at 340 nm using Tecan GENios microplate reader. […] The extent of TTR fibril formation in the absence of inhibitor was defined to be 100%. […] All experiments were done in triplicate. […] The IC50 was determined by plotting mean of % inhibition vs log and fitted to sigmoid equation:
The experiments were conducted at 25° C. After 1 h, the samples were diluted with 0.5 mL of 200 mM sodium acetate buffer pH 4.4 containing 100 mM KCl and 1 mM EDTA, vortexed, and incubated at 37° C. for 72 h. […] The stoichiometry of the binding of the inhibitors was determined by HPLC as described by Green et al., N. S. Palaninathan, S, L, Sacchettini, J. e. […] Dissociation constant of binding of these compounds to TTR was determined by fluorescence titration, and data were fitted into the Adair equation for two bind mg.

TTR = molecular target: T2, TTR (Homo sapiens, UniProt P02766); assay: Time course (kinetics) of fibril formation, turbidity at 340 nm for 3 h; format: biochemical; conditions: TTR 7.2 μM, inhibitor 21.6 μM, 37° C., pH 4.4, 3 h
T2 construct: made in house
Procedure: Time Course of Fibril Formation. The kinetics of inhibition was studied by incubating […] TTR with […] of different inhibitors in 100 µl of 5 mM phosphate buffer pH 7.2 for 30 min in a 96 microwell plate. […] of 0.2 M sodium acetate buffer pH 4.4 containing 1 mM EDTA and 100 mM KCl was added. The difference in turbidity was assessed by measuring the change in absorbance at 340 nm on Tecan GEnios microplate reader using Magellan software. For kinetics, parameters were set for 30 cycles at 37° C. at the interval of 5 min each and 2 min orbital shaking (low speed) between cycles and 10 sec shaking (normal speed) before measurement. All experiments were performed in triplicates. Change in absorbance at 340 nm was plotted against time in the presence and absence of inhibitors initial rate of fibril formation was calculated from the slope by linear fitting of the data.
All experiments were performed three times in triplicates. Change in absorbance (mean of three different experiments) at 340 nm was plotted against time in the presence and absence of inhibitors. Initial rate of fibril form action was calculated from the value of the slope by linear fitting of the change in absorbance at 340 nm as a function of time.

[1] = pH 4.4, compound 100 μM, WT-TTR 7.2 μM, pH 4.4, 37° C., read-out: % FF
[2] = pH 4.4, compound 100 μM, WT-TTR 7.2 μM, pH 4.4, 37° C., read-out: % Inhibition
[3] = biphenyl ether 50 μM, WT-TTR 7.2 μM
[4] = Table 3, WT-TTR 7.2 μM, read-out: IC50

SMILES	remaining activity at 100 µM (WT-TTR; [1]) [%]	inhibition at 100 µM (WT-TTR; [2]) [%]	other results
Oc1cc(CCl)ccc1Oc1ccc(Cl)cc1Cl [Compound 3]			remaining activity at 7.2 µM (WT-TTR; pH 4.4, read-out: % FF 1:1): 5%; remaining activity at 21.6 µM (WT-TTR; pH 4.4, read-out: % FF 1:3): 0%; remaining activity at 50 µM (WT-TTR): 0%; inhibition at 21.6 µM (TTR): > 80%
Fc1ccccc1NC(=S)N(CCCN1CCOCC1)Cc1cccnc1 [Compound C087-1168]	99.3	0.7	
O=C(O)C1CSC(c2ccc(Cl)cc2)N1 (stereo not shown) [Compound K085-0001]	142	0	
CCOC(=O)c1sc(=S)n(-c2ccc(Br)cc2)c1N [Compound R052-0946]	164	0	
O=C(O)C1CSC(c2ccc(Cl)cc2Cl)N1 (stereo not shown) [Compound K085-0018]	22.3	77.7	
O=c1c2ccccc2nc2sc(Nc3ccc(F)cc3F)nn12 [Compound K284-2958]	-2.03	102	
O=C(O)C1CSC(c2ccc([N+](=O)[O-])cc2)N1 (stereo not shown) [Compound K085-0004]	119	0	
O=C(NC(c1ccco1)c1cc(Cl)c2cccnc2c1O)c1cccnc1 (stereo not shown) [Compound K839-0124]	36.7	63.3	
O=C1OC(c2ccc(Cl)cc2Cl)=N/C1=C/c1ccc(Cl)c(Cl)c1 [Compound K088-1297]	138	0	
Cc1ccsc1/C=c1\sc2nc(-c3cccs3)nn2c1=O [Compound 5629-0544]	77.8	22.3	
Nc1nc(F)cc(Oc2ccccc2F)n1 [Compound 1544-0078]	54.4	45.6	
O=C(NC1CC1)c1cc(Sc2cccc(Cl)c2)nc2ccccc12 [Compound K784-7224]	41.8	58.2	
Cc1ccccc1Nc1c(-c2ccc(O)cc2)nc2ccc(Cl)cn12 [Compound C273-0223]	130	0	
O=C1CCCC2=C1C(c1cccc(O)c1)NC(=S)N2 (stereo not shown) [Compound C157-0040]	106	0	
Cc1cc(C(=O)Nc2cc(Cl)ccc2O)no1 [Compound C226-2564]	96.8	3.18	
O=C(Nc1c2c(nn1-c1cccc(Cl)c1)C[S+]([O-])C2)c1ccccc1F (stereo not shown) [Compound C077-0215]	89.5	10.4	
CCCCN(CC)Cc1c(C)nc2ccc(Cl)cc2c1O [Compound 4358-1230]	79.7	20.3	
O=C(Nc1c2c(nn1-c1ccc(F)cc1)C[S+]([O-])C2)c1ccccc1F (stereo not shown) [Compound C077-0216]	104	0	
Cc1ccc2nc(-c3ccc(Cl)s3)c(Nc3ccc(Cl)cc3)n2c1 [Compound C239-0730]	113	0	
COc1cc(CCl)ccc1Oc1ccc([N+](=O)[O-])cc1[N+](=O)[O-] [Compound 18]			remaining activity at 50 µM (WT-TTR; [3]): 79%
Nc1cc(O)nc(SCC(=O)N2CCOCC2)n1 [Compound 3996-0165]	112	0	
Cc1ccc2nc(Nc3nc(O)c4ccccc4n3)nc(C)c2c1 [Compound 5594-0187]	68.9	31.1	
O=c1c2sccc2n(Cc2ccc(F)cc2Cl)c(=O)n1-c1cc(F)ccc1F [Compound C241-0192]	117	0	
CCOC(=O)c1c(N)sc(C(=O)Nc2cc(C)cc(C)c2)c1C [Compound R052-1596]	87.8	12.2	

SMILES	remaining activity at 100 µM (WT-TTR; [1]) [%]	inhibition at 100 µM (WT-TTR; [2]) [%]	other results
CCc1ccc(Oc2cc(F)nc(N)n2)cc1 [Compound 1544-0079]	10.4	9.71	
O=C(O)CCCCCN1C(=O)/C(=C/c2c[nH]c3ccccc23)SC1=S [Compound 2279-3516]			remaining activity at 100 µM (WT-TTR; pH 4.4, read-out: % FF): 126%; inhibition at 100 µM (WT-TTR; pH 4.4): 0%
O=C(O)c1ccc(Oc2ccc([N+](=O)[O-])cc2[N+](=O)[O-])c(O)c1 [Compound 22]			remaining activity at 50 µM (WT-TTR; [3]): 75%
CC(C)C(=O)NC(c1ccccc1)c1ccc2cccnc2c1O (stereo not shown) [Compound K839-0067]	4.6	95.4	
O=C1OC(c2ccc(Cl)cc2Cl)=N/C1=C\c1cccs1 [Compound K075-5819]	136	0	
CCc1ccccc1NC(=S)N(CCN(C)C)Cc1cccs1 [Compound C087-0905]	108	0	
COc1ccc(NC(=S)N(CCCN2CCOCC2)Cc2cccs2)cc1 [Compound C087-0783]	102	0	
Cc1nc2c(ccc3ccccc32)c(O)c1CN1CCOCC1 [Compound 3453-1337]	69.6	30.4	
COc1ccc(/C=C2\SC(=S)N(c3ccc(O)cc3)C2=O)cc1 [Compound 2189-0710]	281	0	
O=C(O)C1CSC(c2ccc(Cl)c(Cl)c2)N1 (stereo not shown) [Compound K085-0014]	102	0	
O=Cc1ccc(Oc2ccc([N+](=O)[O-])cc2[N+](=O)[O-])c(O)c1 [Compound 17]			remaining activity at 50 µM (WT-TTR): 40.5%; IC50 (WT-TTR; [4]): 55000 nM
O=c1/c(=C\c2ccccc2Cl)sc2nc3ccccc3n12 [Compound 3062-0592]	71	29.1	
CCCCC1NC(C(=O)O)CS1 (stereo not shown) [Compound K085-0025]	128	0	
Cc1ccccc1Nc1c(-c2ccc(Cl)s2)nc2ccc(Cl)cn12 [Compound C273-0244]	306	0	
COc1cc(CCl)ccc1Oc1ccccc1 [Compound 8, 3-Methoxy-4-phenoxybenzyl chloride]			IC50 (WT-TTR; 50% reduction in fibril formation, TTR 7.2 μM, pH 4.4, read-out: IC50 ± SE): 1940 ± 90 nM; remaining activity at 50 µM (WT-TTR; [3]): 0%; remaining activity at 7.2 µM (WT-TTR; pH 4.4, TTR 7.2 μM, inhibitor 7.2 μM (1:1), pH 4.4, 37° C., no inhibitor = 100%, read-out: % FF 1:1): 25%; remaining activity at 21.6 µM (WT-TTR; pH 4.4, TTR 7.2 μM, inhibitor 21.6 μM (1:3), pH 4.4, 37° C., no inhibitor = 100%, read-out: % FF 1:3): 0%; IC50 (WT-TTR; TTR amyloid formation, 37° C., read-out: IC50): 470 to 3500 nM; IC50 (WT-TTR; [4]): 1940 nM; inhibition at 21.6 µM (TTR): > 80%
COc1cc(CO)ccc1Oc1ccc([N+](=O)[O-])cc1[N+](=O)[O-] [Compound 19]			remaining activity at 50 µM (WT-TTR): 28%; IC50 (WT-TTR; [4]): 20000 nM
O=C(O)C1CSC(c2ccc(O)cc2)N1 (stereo not shown) [Compound K085-0008]	120	0	
O=C(NC(c1ccccc1)c1cc(Cl)c2cccnc2c1O)c1cccnc1 (stereo not shown) [Compound K839-0113]	29.6	70.4	
CCN(CC)CCCN(Cc1ccco1)C(=S)Nc1ccc(OC)cc1 [Compound C087-0785]	107	0	
COc1ccccc1NC(=S)N(CCCN1CCCCCC1)Cc1cccs1 [Compound C087-0823]	104	0	
CCOc1cccc2c1OC(c1cccc(Cl)c1)N1N=C(c3cccs3)CC21 (stereo not shown) [Compound K805-0132]		0	
Cc1cc(C(=O)Nc2cccnc2Cl)no1 [Compound C226-2576]	130	0	
O=C1/C(=C\c2ccc(-c3ccc(Cl)cc3)o2)SC(=S)N1c1cccc(Cl)c1 [Compound 1934-0113]	107	0	
O=C(O)C1CSC(c2c(F)cccc2Cl)N1 (stereo not shown) [Compound K085-0006]	20.3	79.7	
